Laboratory results reported in patent publication US8846710B2, “Method of preferentially inducing the biosynthesis of interferon” (3M Innovative Properties Company, priority 2005, dated 2014).

Key:
[1] = system: tumor necrosis factor (α) (TNF-α); test: Cytokine induction in human cells: TNF-α secreted by PBMC into culture media (ORIGEN M-Series immunoassay); format: cell-based; conditions: human PBMC; for Minimum Effective Concentration TNF: median where tested in more than one experiment; for Maximal Response TNF: median
In short: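 Secreted TNF-α (pg/mL) was quantified by ORIGEN M-Series immunoassay after 18 to 24 hours culture at 37° C of human PBMC (2×10^6 cells/mL final) with test compound (usually 30-0.014 μM, 3-fold series, DMSO ≤1%). Values were corrected for DMSO or experimental background and a reference-compound ratio, giving a minimum effective concentration.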

interferon (α) (IFN-α) = test: Cytokine induction in human cells: IFN-α secreted by PBMC into culture media (ELISA); format: cell-based; conditions: human PBMC, median where tested in more than one experiment
In short: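 IFN-α secreted by density-gradient-isolated PBMC (final 2×10^6 cells/mL) was quantified by ELISA after 18–24 h compound exposure at 37 °C, typically 30-0.014 μM in 3-fold steps with ≤1% DMSO. Readings corrected for background and reference-compound variability; lowest concentration above usually 20 pg/mL reported, plus maximal response (pg/mL).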

[2] = Table 11, * = TNF below experimental background of 40 pg/mL
[3] = Table 12, * = below the experimental background of 40 pg/mL

Row | SMILES | Minimum Effective Concentration TNF ([1]; Table 11) [µM] | Maximal Response TNF [1, 2] [pg/mL] | Maximal Response IFN (interferon (α) (IFN-α); Table 11) [pg/mL] | Minimum Effective Concentration IFN (interferon (α) (IFN-α); Table 11) [µM] | Maximal Response TNF [1, 3] [pg/mL] | Maximal Response IFN (interferon (α) (IFN-α); Table 12) [pg/mL]
1 | COCCc1nc2c(N)nc3ccccc3c2n1CC(C)(C)CN [Analog 100] | 0.04 | 17626 | 571 | 0.014 |  | 
2 | Cc1nc2c(N)nc3ccccc3c2n1CCCNC(=O)c1ccccc1 [Analog 101] | 3.33 | 156 | 571 | 1.11 |  | 
3 | COCCc1nc2c(N)nc3ccccc3c2n1CCCNC(=O)c1ccccc1 [Analog 102] | 1.11 | 3080 | 1504 | 0.014 |  | 
4 | CCNC(=O)NCCn1c(CC)nc2c(N)nc3ccccc3c21 [Analog 103] | 10 | 3250 | 1031 | 3.33 |  | 
5 | CCNC(=O)NCCn1c(CCOC)nc2c(N)nc3ccccc3c21 [Analog 104] | 0.12 | 7719 | 2587 | 0.014 |  | 
6 | CCc1nc2c(N)nc3ccccc3c2n1CCNC(=O)CC(C)C [Analog 105] | 30 | 587 | 851 | 3.33 |  | 
7 | COCCc1nc2c(N)nc3ccccc3c2n1CCNC(=O)CC(C)C [Analog 106] | 3.33 | 5694 | 1204 | 0.12 |  | 
8 | CCCc1nc2c(N)nc3ccccc3c2n1CC(C)(C)NC(=O)NC(C)C [Analog 107] | 3.33 | 6363 | 1428 | 1.11 |  | 
9 | CCOCc1nc2c(N)nc3ccccc3c2n1CC(C)(C)NC(=O)NC(C)C [Analog 108] | 1.11 | 10587 | 966 | 0.37 |  | 
10 | COCCc1nc2c(N)nc3ccccc3c2n1CCCNS(=O)(=O)c1ccc(C)cc1 [Analog 109] | 0.37 | 6169 | 638 | 0.04 |  | 
11 | COCCc1nc2c(N)nc3ccccc3c2n1CCCNC(=O)c1cc2ccccc2cn1 [Analog 110] | 1.11 | 6169 | 647 | 0.12 |  | 
12 | CCOCc1nc2c(N)nc3ccccc3c2n1CC(C)(C)N [Analog 111] | 0.37 | 11475 | 656 | 0.12 |  | 
13 | COCCc1nc2c(N)nc3ccccc3c2n1CCCCNC(=O)c1nccc2ccccc12 [Analog 112] | 0.04 | 1462 | 2127 | 0.014 |  | 
14 | COCCc1nc2c(N)nc3ccccc3c2n1CCCCNS(=O)(=O)c1ccc(F)cc1 [Analog 113] | 0.04 | 3786 | 6032 | 0.014 |  | 
15 | COCCc1nc2c(N)nc3ccccc3c2n1CCCCN [Analog 114] | 0.37 | 724 | 127231 | 0.04 |  | 
16 | COCCc1nc2c(N)nc3ccccc3c2n1CCCCNC(=O)c1cnc2ccccc2c1 [Analog 115] | 0.04 | 9340 | 7545 | 0.014 |  | 
17 | COCCc1nc2c(N)nc3ccccc3c2n1CCCCNC(=O)c1cnc2ccccc2n1 [Analog 116] | 0.04 | 7261 | 1129 | 0.014 |  | 
18 | COCCc1nc2c(N)nc3ccccc3c2n1CCCCCCCCNC(=O)Nc1ccccc1 [Analog 117] | 0.12 | 1372 | 1257 | 0.014 |  | 
19 | COCCc1nc2c(N)nc3ccccc3c2n1CCCCCCCCNS(C)(=O)=O [Analog 118] | 0.014 | 1853 | 1914 | 0.014 |  | 
20 | COCCc1nc2c(N)nc3ccccc3c2n1CCCCCCCCNC(=O)c1ccccc1 [Analog 119] | 0.014 | 1995 | 1584 | 0.014 |  | 
21 | COCCc1nc2c(N)nc3ccccc3c2n1CCOCCN(C)C(=O)c1ccccc1 [Analog 120] | 0.37 | 3317 | 1394 | 0.04 |  | 
22 | Cc1nc2c(N)nc3ccccc3c2n1CCCNC(=O)C(C)C [Analog 123] | 10 | 405 | 3011 | 1.11 |  | 
23 | CCOCc1nc2c(N)nc3ccccc3c2n1CC(C)(C)CS(C)(=O)=O [Analog 124] | 0.37 | 9513 | 1924 | 0.12 |  | 
24 | CCOCc1nc2c(N)nc3ccccc3c2n1CCNC(=O)NC(C)C [Analog 125] | 10 | 7512 | 2045 | 0.37 |  | 
25 | Cc1nc2c(N)nc3cccnc3c2n1CC(C)(C)O [Analog 126, 1-(4-amino-2-methyl-1H-imidazo[4,5-c][1,5]naphthyridin-1-yl)-2-methylpropan-2-ol] |  |  |  |  | 6519 | 1952
26 | CCc1nc2c(N)nc3cccnc3c2n1CC(C)(C)O [Analog 127, 1-(4-amino-2-ethyl-1H-imidazo[4,5-c][1,5]naphthyridin-1-yl)-2-methylpropan-2-ol] |  |  |  |  | 3863 | 2150
27 | CCCc1nc2c(N)nc3cccnc3c2n1CC(C)(C)O [Analog 128, 1-(4-amino-2-propyl-1H-imidazo[4,5-c][1,5]naphthyridin-1-yl)-2-methylpropan-2-ol] |  |  |  |  | 5526 | 2484
28 | CCOCc1nc2c(N)nc3cccnc3c2n1CC(C)(C)NC(=O)C1CCCCC1 [Analog 129, N-[2-(4-amino-2-ethoxymethyl-1H-imidazo[4,5-c][1,5]naphthyridin-1-yl)-1,1-dimethylethyl]cyclohexanecarboxamide] |  |  |  |  | 8691 | 1647
